Columns and labels:
rice [1] = assay: Test B preemergence/postemergence greenhouse plant response rating 0 to 10; format: in vivo, Oryza sativa; conditions: 0 to 10 scale
Outline: (§1)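 Test chemicals were sprayed onto freshly planted seed and, concurrently, onto young plants between the one and four leaf stage. After a twelve- to sixteen-day greenhouse period, each species was visually compared with untreated controls.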

umbrella sedge = assay: Test C flood test plant response rating 0 to 100; format: in vivo, Cyperus difformis; conditions: for Plant response rating (0 to 100), Umbrella sedge: under POSTEMERGENCE head (flood test species); for Plant response rating Umbrella sedge: flood test species listed under POSTEMERGENCE, 0 to 100 scale
Outline: (§2)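 Compounds in non-phytotoxic solvent applied preemergence to sandy loam one day after planting, postemergence at the 1–4 leaf stage, or to ~2.5 cm floodwater over silt loam.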

rape = assay: Test B preemergence/postemergence greenhouse plant response rating 0 to 10; format: in vivo, Brassica napus; conditions: 0 to 10 scale
Outline: as §1

cocklebur = assay: as above; format: in vivo, Xanthium pensylvanicum; conditions: 0 to 10 scale
Outline: as §1

sorghum = assay: Test C preemergence/postemergence greenhouse plant response rating 0 to 100; format: in vivo, Sorghum bicolor; conditions: POSTEMERGENCE; for Plant response rating, Sorghum: 0 to 100 scale
Outline: (§3)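 Compounds in non-phytotoxic solvent went onto sandy loam before emergence (seeded one day earlier) or onto plants at the one-to-four leaf stage. Duck salad was treated via flood water (~2.5 cm, maintained) over silt loam.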

blackgrass = assay: Test B preemergence/postemergence greenhouse plant response rating 0 to 10; format: in vivo, Alopecurus myosuroides; conditions: 0 to 10 scale
Outline: as §1

barnyardgrass = assay: Test C flood test plant response rating 0 to 100; format: in vivo, Echinochloa crus-galli; conditions: for Plant response rating (0 to 100), Barnyardgrass: under POSTEMERGENCE head (flood test species); for Plant response rating, Barnyardgrass: flood test species listed under POSTEMERGENCE, 0 to 100 scale
Outline: as §2

rice [2] = assay: Test C flood test plant response rating 0 to 100; format: in vivo, Oryza sativa; conditions: for Plant response rating (0 to 100), Rice Japonica: under POSTEMERGENCE head (flood test species); for Plant response rating Rice Japonica: flood test species listed under POSTEMERGENCE, 0 to 100 scale
Outline: as §2

corn = assay: Test C preemergence/postemergence greenhouse plant response rating 0 to 100; format: in vivo, Zea mays; conditions: POSTEMERGENCE; for Plant response rating, Corn: 0 to 100 scale
Outline: as §3

morningglory = assay: as above; format: in vivo, Ipomoea hederacea; conditions: POSTEMERGENCE; for Plant response rating, Morningglory: 0 to 100 scale
Outline: as §3

barley = assay: Test B preemergence/postemergence greenhouse plant response rating 0 to 10; format: in vivo, Hordeum vulgare; conditions: 0 to 10 scale
Outline: as §1

purple nutsedge = assay: as above; format: in vivo, Cyperus rotundus; conditions: 0 to 10 scale
Outline: as §1

crabgrass = assay: as above; format: in vivo, Digitaria spp.; conditions: 0 to 10 scale
Outline: as §1

pigweed = assay: Test C preemergence/postemergence greenhouse plant response rating 0 to 100; format: in vivo, Amaranthusretroflexus; conditions: POSTEMERGENCE; for Plant response rating Pigweed: 0 to 100 scale
Outline: as §3

lambsquarters = assay: Test B preemergence/postemergence greenhouse plant response rating 0 to 10; format: in vivo, Chenopodium album; conditions: 0 to 10 scale
Outline: as §1

sugar beet = assay: as above; format: in vivo, Beta vulgaris; conditions: 0 to 10 scale
Outline: as §1

soybean = assay: as above; format: in vivo, Glycine max; conditions: 0 to 10 scale
Outline: as §1

bedstraw = assay: as above; format: in vivo, Galium aparine; conditions: 0 to 10 scale
Outline: as §1

For C#CC(C)Oc1cc(-c2nn3c(c2Cl)CCCC3)c(F)cc1Cl (centres unmarked) [Compound 36], the “Plant response rating, Rice” value (rice [1]; POSTEMERGENCE, Rate 50 g/ha) was 6, the “Plant response rating, Rice” value (rice [1]; PREEMERGENCE, Rate 50 g/ha) was 0 and the “Plant response rating, Rice” value (rice [1]; Rate 200 g/ha, POSTEMERGENCE) was 6. The “Plant response rating, Rice” value (rice [1]; Rate 200 g/ha, PREEMERGENCE) was 4, the “Plant response rating (0 to 100), Umbrella sedge” value (umbrella sedge; Rate 16 g/ha) was 0 and the “Plant response rating (0 to 100), Umbrella sedge” value (umbrella sedge; Rate 31 g/ha) was 20. For the same compound, the “Plant response rating Umbrella sedge” value (umbrella sedge; 62 g/ha) was 70, the “Plant response rating Umbrella sedge” value (umbrella sedge; 125 g/ha) was 80 and the “Plant response rating, Rape” value (rape; POSTEMERGENCE, Rate 50 g/ha) was 10. The “Plant response rating, Rape” value (rape; PREEMERGENCE, Rate 50 g/ha) was 5, the “Plant response rating, Rape” value (rape; Rate 200 g/ha, POSTEMERGENCE) was 10 and the “Plant response rating, Rape” value (rape; Rate 200 g/ha, PREEMERGENCE) was 8. The “Plant response rating, Cocklebur” value (cocklebur; POSTEMERGENCE, Rate 50 g/ha) was 9, the “Plant response rating, Cocklebur” value (cocklebur; POSTEMERGENCE, Rate 200 g/ha) was 10 and the “Plant response rating, Cocklebur” value (cocklebur; PREEMERGENCE, Rate 50 g/ha) was 0. For the same compound, the “Plant response rating, Cocklebur” value (cocklebur; Rate 200 g/ha, PREEMERGENCE) was 2, the “Plant response rating, Sorghum” value (sorghum; 62 g/ha) was 60 and the “Plant response rating, Sorghum” value (sorghum; 125 g/ha) was 70. For the same compound, the “Plant response rating (0 to 100), Sorghum” value (sorghum; Rate 16 g/ha) was 40, the “Plant response rating (0 to 100), Sorghum” value (sorghum; Rate 31 g/ha) was 50 and the “Plant response rating, Blackgrass” value (blackgrass; POSTEMERGENCE, Rate 50 g/ha) was 5. The “Plant response rating, Blackgrass” value (blackgrass; POSTEMERGENCE, Rate 200 g/ha) was 7, the “Plant response rating, Blackgrass” value (blackgrass; PREEMERGENCE, Rate 50 g/ha) was 4 and the “Plant response rating, Blackgrass” value (blackgrass; Rate 200 g/ha, PREEMERGENCE) was 10. The “Plant response rating (0 to 100), Barnyardgrass” value (barnyardgrass; Rate 16 g/ha) was 100, the “Plant response rating (0 to 100), Barnyardgrass” value (barnyardgrass; Rate 31 g/ha) was 100 and the “Plant response rating, Barnyardgrass” value (barnyardgrass; 62 g/ha) was 100. The “Plant response rating, Barnyardgrass” value (barnyardgrass; 125 g/ha) was 100, the “Plant response rating (0 to 100), Rice Japonica” value (rice [2]; Rate 16 g/ha) was 20 and the “Plant response rating (0 to 100), Rice Japonica” value (rice [2]; Rate 31 g/ha) was 35. The “Plant response rating Rice Japonica” value (rice [2]; 62 g/ha) was 40, the “Plant response rating Rice Japonica” value (rice [2]; 125 g/ha) was 50 and the “Plant response rating, Corn” value (corn; 62 g/ha) was 50. The “Plant response rating, Corn” value (corn; 125 g/ha) was 60, the “Plant response rating (0 to 100), Corn” value (corn; Rate 16 g/ha) was 30 and the “Plant response rating (0 to 100), Corn” value (corn; Rate 31 g/ha) was 40. The “Plant response rating, Morningglory” value (morningglory; 62 g/ha) was 100, the “Plant response rating, Morningglory” value (morningglory; 125 g/ha) was 100 and the “Plant response rating (0 to 100), Morningglory” value (morningglory; Rate 16 g/ha) was 80. The “Plant response rating (0 to 100), Morningglory” value (morningglory; Rate 31 g/ha) was 80, the “Plant response rating, Barley” value (barley; POSTEMERGENCE, Rate 50 g/ha) was 5 and the “Plant response rating, Barley” value (barley; POSTEMERGENCE, Rate 200 g/ha) was 6. The “Plant response rating, Barley” value (barley; PREEMERGENCE, Rate 50 g/ha) was 0, the “Plant response rating, Barley” value (barley; Rate 200 g/ha, PREEMERGENCE) was 2 and the “Plant response rating, Nutsedge” value (purple nutsedge; POSTEMERGENCE, Rate 50 g/ha) was 4. For the same compound, the “Plant response rating, Nutsedge” value (purple nutsedge; PREEMERGENCE, Rate 50 g/ha) was 0, the “Plant response rating, Nutsedge” value (purple nutsedge; Rate 200 g/ha, POSTEMERGENCE) was 5 and the “Plant response rating, Nutsedge” value (purple nutsedge; Rate 200 g/ha, PREEMERGENCE) was 2. For the same compound, the “Plant response rating, Crabgrass” value (crabgrass; POSTEMERGENCE, Rate 50 g/ha) was 5, the “Plant response rating, Crabgrass” value (crabgrass; POSTEMERGENCE, Rate 200 g/ha) was 7 and the “Plant response rating, Crabgrass” value (crabgrass; PREEMERGENCE, Rate 50 g/ha) was 5. For the same compound, the “Plant response rating, Crabgrass” value (crabgrass; Rate 200 g/ha, PREEMERGENCE) was 9, the “Plant response rating Pigweed” value (pigweed; 62 g/ha) was 100 and the “Plant response rating Pigweed” value (pigweed; 125 g/ha) was 100. For the same compound, the “Plant response rating (0 to 100), Pigweed” value (pigweed; Rate 16 g/ha) was 100, the “Plant response rating (0 to 100), Pigweed” value (pigweed; Rate 31 g/ha) was 100 and the “Plant response rating, Lambsquarter” value (lambsquarters; POSTEMERGENCE, Rate 50 g/ha) was 10. For the same compound, the “Plant response rating, Lambsquarter” value (lambsquarters; PREEMERGENCE, Rate 50 g/ha) was 10, the “Plant response rating, Lambsquarter” value (lambsquarters; Rate 200 g/ha, POSTEMERGENCE) was 10 and the “Plant response rating, Lambsquarter” value (lambsquarters; Rate 200 g/ha, PREEMERGENCE) was 10. For the same compound, the “Plant response rating, Sugar beet” value (sugar beet; POSTEMERGENCE, Rate 50 g/ha) was 10, the “Plant response rating, Sugar beet” value (sugar beet; PREEMERGENCE, Rate 50 g/ha) was 9 and the “Plant response rating, Sugar beet” value (sugar beet; Rate 200 g/ha, POSTEMERGENCE) was 10. The “Plant response rating, Sugar beet” value (sugar beet; Rate 200 g/ha, PREEMERGENCE) was 9, the “Plant response rating, Soybean” value (soybean; POSTEMERGENCE, Rate 50 g/ha) was 9 and the “Plant response rating, Soybean” value (soybean; PREEMERGENCE, Rate 50 g/ha) was 0. The “Plant response rating, Soybean” value (soybean; Rate 200 g/ha, POSTEMERGENCE) was 9, the “Plant response rating, Soybean” value (soybean; Rate 200 g/ha, PREEMERGENCE) was 2 and the “Plant response rating, Bedstraw” value (bedstraw; POSTEMERGENCE, Rate 50 g/ha) was 10. The “Plant response rating, Bedstraw” value (bedstraw; POSTEMERGENCE, Rate 200 g/ha) was 10 and the “Plant response rating, Bedstraw” value (bedstraw; PREEMERGENCE, Rate 50 g/ha) was 10.

From patent US6358885B1, “Substituted phenylheterocyclic herbicides” (Mississippi State University, priority 1992, dated 2002)
